Source: the NIST ThermoML archive (doi:10.1016/j.fluid.2011.11.028)
Numbers after ± are expanded uncertainties.

Columns and labels:
[1] = cn = amount concentration of the nth substance listed, in mol/dm3; settings: 298.15 K, 101 kPa, Liquid, Alternating current cell with electrodes
[2] = mn = molality of the nth substance listed, in mol/kg; settings: 298.15 K, 101 kPa, Liquid; for viscosity: Capillary tube (Ostwald / Ubbelohde) method; for mass density: Vibrating tube method

SMILES | viscosity ([2]; m1 = 0.2) [mPa·s] | viscosity ([2]; m1 = 0.4) [mPa·s] | viscosity ([2]; m1 = 0.6) [mPa·s] | viscosity ([2]; m1 = 0.8) [mPa·s] | viscosity ([2]; m1 = 1) [mPa·s] | viscosity ([2]; m1 = 1.2) [mPa·s] | mass density ([2]; m1 = 0.2) [kg/m3] | mass density ([2]; m1 = 0.4) [kg/m3] | mass density ([2]; m1 = 0.6) [kg/m3] | mass density ([2]; m1 = 0.8) [kg/m3] | mass density ([2]; m1 = 1) [kg/m3] | mass density ([2]; m1 = 1.2) [kg/m3] | further results
CCCCn1cc[n+](C)c1.[Cl-] [1-butyl-3-methylimidazolium chloride] + O | – | – | – | – | – | – | – | – | – | – | – | – | molar conductivity ([1]; c1 = 0.0004734): 0.0107 ± 0.00043 S·m2/mol; molar conductivity ([1]; c1 = 0.0006936): 0.0106 ± 0.00042 S·m2/mol; molar conductivity ([1]; c1 = 0.0008909): 0.0106 ± 0.00042 S·m2/mol; molar conductivity ([1]; c1 = 0.001113): 0.0105 ± 0.00042 S·m2/mol; molar conductivity ([1]; c1 = 0.001311): 0.0105 ± 0.00042 S·m2/mol; molar conductivity ([1]; c1 = 0.001497): 0.0105 ± 0.00042 S·m2/mol; molar conductivity ([1]; c1 = 0.00167): 0.0105 ± 0.00042 S·m2/mol; molar conductivity ([1]; c1 = 0.001839): 0.0104 ± 0.00042 S·m2/mol; molar conductivity ([1]; c1 = 0.001984): 0.0104 ± 0.00042 S·m2/mol; molar conductivity ([1]; c1 = 0.002099): 0.0104 ± 0.00042 S·m2/mol
CCCCCCCCCCn1cc[n+](C)c1.[Cl-] [1-decyl-3-methylimidazolium chloride] + O | – | – | – | – | – | – | – | – | – | – | – | – | molar conductivity ([1]; c1 = 0.0001226): 0.00997 ± 0.0004 S·m2/mol; molar conductivity ([1]; c1 = 0.0002378): 0.00993 ± 0.0004 S·m2/mol; molar conductivity ([1]; c1 = 0.0003622): 0.0099 ± 0.0004 S·m2/mol; molar conductivity ([1]; c1 = 0.0004428): 0.00987 ± 0.0004 S·m2/mol; molar conductivity ([1]; c1 = 0.0005678): 0.00984 ± 0.00039 S·m2/mol; molar conductivity ([1]; c1 = 0.000679): 0.00981 ± 0.00039 S·m2/mol; molar conductivity ([1]; c1 = 0.0007671): 0.0098 ± 0.00039 S·m2/mol; molar conductivity ([1]; c1 = 0.0008693): 0.00978 ± 0.00039 S·m2/mol; molar conductivity ([1]; c1 = 0.001044): 0.00975 ± 0.00039 S·m2/mol; molar conductivity ([1]; c1 = 0.001192): 0.00974 ± 0.00039 S·m2/mol; molar conductivity ([1]; c1 = 0.001374): 0.00972 ± 0.00039 S·m2/mol; molar conductivity ([1]; c1 = 0.00153): 0.0097 ± 0.00039 S·m2/mol
CCCCCCn1cc[n+](C)c1.[Cl-] [1-hexyl-3-methylimidazolium chloride] + O | – | – | – | – | – | – | – | – | – | – | – | – | molar conductivity ([1]; c1 = 0.0001239): 0.0103 ± 0.00041 S·m2/mol; molar conductivity ([1]; c1 = 0.0002407): 0.0103 ± 0.00041 S·m2/mol; molar conductivity ([1]; c1 = 0.0003449): 0.0102 ± 0.00041 S·m2/mol; molar conductivity ([1]; c1 = 0.0004557): 0.0102 ± 0.00041 S·m2/mol; molar conductivity ([1]; c1 = 0.0005824): 0.0102 ± 0.00041 S·m2/mol; molar conductivity ([1]; c1 = 0.0007219): 0.0101 ± 0.0004 S·m2/mol; molar conductivity ([1]; c1 = 0.0008733): 0.0101 ± 0.0004 S·m2/mol; molar conductivity ([1]; c1 = 0.0009879): 0.0101 ± 0.0004 S·m2/mol; molar conductivity ([1]; c1 = 0.001214): 0.0101 ± 0.0004 S·m2/mol; molar conductivity ([1]; c1 = 0.001417): 0.01 ± 0.0004 S·m2/mol; molar conductivity ([1]; c1 = 0.001669): 0.01 ± 0.0004 S·m2/mol; molar conductivity ([1]; c1 = 0.001927): 0.00999 ± 0.0004 S·m2/mol
CCCCCCCC[n+]1ccn(C)c1.[Cl-] [1-methyl-3-octylimidazolium chloride] + O | – | – | – | – | – | – | – | – | – | – | – | – | molar conductivity ([1]; c1 = 0.0003264): 0.0101 ± 0.0004 S·m2/mol; molar conductivity ([1]; c1 = 0.000434): 0.0101 ± 0.0004 S·m2/mol; molar conductivity ([1]; c1 = 0.0005416): 0.01 ± 0.0004 S·m2/mol; molar conductivity ([1]; c1 = 0.0006484): 0.01 ± 0.0004 S·m2/mol; molar conductivity ([1]; c1 = 0.0007536): 0.01 ± 0.0004 S·m2/mol; molar conductivity ([1]; c1 = 0.0008878): 0.00997 ± 0.0004 S·m2/mol; molar conductivity ([1]; c1 = 0.001103): 0.00995 ± 0.0004 S·m2/mol; molar conductivity ([1]; c1 = 0.001269): 0.00993 ± 0.0004 S·m2/mol; molar conductivity ([1]; c1 = 0.001538): 0.0099 ± 0.0004 S·m2/mol; molar conductivity ([1]; c1 = 0.001689): 0.00989 ± 0.0004 S·m2/mol; molar conductivity ([1]; c1 = 0.001863): 0.00987 ± 0.0004 S·m2/mol
O=C[C@H](O)[C@@H](O)[C@@H](O)[C@H](O)CO [(+)-galactose] + O | 0.97 ± 0.007 | 1.06 ± 0.007 | 1.16 ± 0.008 | 1.267 ± 0.009 | 1.381 ± 0.01 | 1.5 ± 0.011 | 1010.73 ± 0.07 | 1023.81 ± 0.11 | 1036.28 ± 0.16 | 1048.23 ± 0.2 | 1059.6 ± 0.2 | 1070.53 ± 0.27 | –
O=C[C@H](O)[C@@H](O)[C@H](O)[C@H](O)CO [D-glucose] + O | 0.974 ± 0.007 | 1.066 ± 0.007 | 1.166 ± 0.008 | 1.273 ± 0.009 | 1.385 ± 0.01 | 1.501 ± 0.011 | 1010.39 ± 0.14 | 1023.12 ± 0.16 | 1035.32 ± 0.2 | 1046.92 ± 0.23 | 1057.99 ± 0.26 | 1068.59 ± 0.29 | –
O=C[C@H](O)[C@H](O)[C@H](O)CO [D-ribose] + O | 0.949 ± 0.007 | 1.011 ± 0.007 | 1.077 ± 0.007 | 1.145 ± 0.008 | 1.215 ± 0.008 | 1.278 ± 0.009 | 1007.85 ± 0.06 | 1018.22 ± 0.09 | 1028.18 ± 0.13 | 1037.77 ± 0.16 | 1046.98 ± 0.19 | 1055.89 ± 0.22 | –
O=C[C@H](O)[C@@H](O)[C@H](O)CO [D-xylose] + O | 0.953 ± 0.007 | 1.022 ± 0.007 | 1.096 ± 0.008 | 1.175 ± 0.008 | 1.258 ± 0.009 | 1.344 ± 0.009 | 1007.79 ± 0.06 | 1018.1 ± 0.09 | 1028.02 ± 0.13 | 1037.53 ± 0.16 | 1046.69 ± 0.19 | 1055.41 ± 0.22 | –
